# Like-named read-outs stand apart in the source and are kept apart here.
# Tests used:
# [1] = target: H1047R PIK3CA enzyme (Homo sapiens, UniProt P42336, H1047R); test: ADP-Glo Biochemical PIK3CA Kinase Assay
# [2] = cells; conditions: Homo sapiens, MCF-10A, read-out: MCF10A I50
# H1047R PIK3CA enzyme, sequence (P42336 whole entry H1047R): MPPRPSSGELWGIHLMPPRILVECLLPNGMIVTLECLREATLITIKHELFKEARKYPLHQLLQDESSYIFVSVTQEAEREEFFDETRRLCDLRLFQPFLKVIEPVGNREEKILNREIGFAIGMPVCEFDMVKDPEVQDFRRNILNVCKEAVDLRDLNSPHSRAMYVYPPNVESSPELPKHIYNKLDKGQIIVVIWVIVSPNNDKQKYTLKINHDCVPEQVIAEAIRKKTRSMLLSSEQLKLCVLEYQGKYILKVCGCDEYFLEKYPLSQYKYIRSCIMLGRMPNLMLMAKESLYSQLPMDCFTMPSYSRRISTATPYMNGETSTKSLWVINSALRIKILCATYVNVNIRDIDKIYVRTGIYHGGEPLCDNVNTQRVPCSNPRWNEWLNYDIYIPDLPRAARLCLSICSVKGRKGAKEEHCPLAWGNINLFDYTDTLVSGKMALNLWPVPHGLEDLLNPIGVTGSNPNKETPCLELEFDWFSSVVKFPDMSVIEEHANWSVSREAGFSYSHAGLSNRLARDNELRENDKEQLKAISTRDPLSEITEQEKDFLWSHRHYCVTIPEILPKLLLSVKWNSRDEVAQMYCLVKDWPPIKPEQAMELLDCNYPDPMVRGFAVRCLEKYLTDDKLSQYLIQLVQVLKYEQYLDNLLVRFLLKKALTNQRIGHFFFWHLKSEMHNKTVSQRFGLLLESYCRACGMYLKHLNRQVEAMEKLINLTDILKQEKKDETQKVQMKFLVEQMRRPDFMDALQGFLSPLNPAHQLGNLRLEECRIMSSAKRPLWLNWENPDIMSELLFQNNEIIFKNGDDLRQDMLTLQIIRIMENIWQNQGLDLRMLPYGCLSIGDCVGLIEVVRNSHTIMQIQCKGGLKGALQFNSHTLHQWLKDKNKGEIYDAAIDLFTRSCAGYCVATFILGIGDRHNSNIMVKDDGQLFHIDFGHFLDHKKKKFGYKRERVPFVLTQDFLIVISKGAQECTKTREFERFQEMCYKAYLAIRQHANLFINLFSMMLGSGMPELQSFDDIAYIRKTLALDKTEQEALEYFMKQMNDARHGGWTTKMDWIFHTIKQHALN
# H1047R PIK3CA enzyme, sequence (P27986 whole entry partner): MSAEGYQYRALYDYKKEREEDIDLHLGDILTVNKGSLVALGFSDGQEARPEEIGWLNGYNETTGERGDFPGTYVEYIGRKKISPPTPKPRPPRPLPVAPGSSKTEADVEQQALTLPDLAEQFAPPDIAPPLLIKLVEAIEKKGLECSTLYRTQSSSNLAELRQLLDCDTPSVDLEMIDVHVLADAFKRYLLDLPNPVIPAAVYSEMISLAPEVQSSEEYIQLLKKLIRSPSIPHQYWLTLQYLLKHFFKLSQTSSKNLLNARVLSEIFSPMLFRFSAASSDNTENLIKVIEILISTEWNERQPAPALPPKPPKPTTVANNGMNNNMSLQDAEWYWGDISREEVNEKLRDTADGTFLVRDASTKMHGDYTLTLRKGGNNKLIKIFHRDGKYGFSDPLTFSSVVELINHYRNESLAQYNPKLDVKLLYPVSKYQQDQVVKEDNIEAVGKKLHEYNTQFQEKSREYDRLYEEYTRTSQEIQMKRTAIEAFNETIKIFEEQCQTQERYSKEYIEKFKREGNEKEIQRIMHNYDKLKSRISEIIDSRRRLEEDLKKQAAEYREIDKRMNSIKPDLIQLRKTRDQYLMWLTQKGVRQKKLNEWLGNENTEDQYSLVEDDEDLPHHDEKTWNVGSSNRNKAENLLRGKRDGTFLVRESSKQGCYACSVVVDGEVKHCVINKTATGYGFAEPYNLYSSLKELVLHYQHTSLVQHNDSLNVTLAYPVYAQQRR
Structure (SMILES),IC50 [1] [nM],IC50 [2] [nM],IC50 ([1]; ADP-Glo biochemical PIK3CA kinase assay) [nM]
C[C@@H](NC(=O)c1cnc(N2CCOc3ccccc32)c(NC(=O)c2csc3ccccc23)c1)c1ccccn1 (racemic) [I-337],100 to 500,5000 to 10000,
"O=C1C[C@@H](CNC(=O)c2cc(F)cc(C(F)(F)F)c2)[C@H](c2cc(F)ccc2Cl)N1 (racemic) [I-801, N-{[(2R,3S)-2-(2-chloro-5-fluorophenyl)-5-oxopyrrolidin-3-yl]methyl}-3-fluoro-5-(trifluoromethyl)benzamide]",100 to 500,1000 to 5000,
"Cc1ccccc1Nc1ncc(C(=O)N[C@@H]2CC(=O)N(C)C2)cc1NC(=O)c1csc2ccccc12 (single isomer, unassigned) [I-435]",,5000 to 10000,≤ 100
Cc1ccccc1Nc1ncc(C(=O)N[C@H]2CCN(C)C2)cc1NC(=O)c1cc(F)cc(C(F)(F)F)c1 (stereo in doubt) [I-67],500 to 1000,10000 to 36000,
C[C@@H](NC(=O)c1cnc(N2CCOc3ccccc32)c(NC(=O)c2csc3ccccc23)c1)c1cccnc1 (stereo in doubt) [I-257],≤ 100,5000 to 10000,
C[C@H](NC(=O)c1cnc(N2CCOc3ccccc32)c(NC(=O)c2csc3ccccc23)c1)c1cccnc1 (stereo in doubt) [I-258],100 to 500,10000 to 36000,
C[C@@H](NC(=O)c1cnc(N2CCOc3ccccc32)c(NC(=O)c2csc3ccccc23)c1)c1ccncc1 (stereo in doubt) [I-314],100 to 500,5000 to 10000,
C[C@H](NC(=O)c1cnc(N2CCOc3ccccc32)c(NC(=O)c2csc3ccccc23)c1)c1ccncc1 (stereo in doubt) [I-315],500 to 1000,10000 to 36000,
CNC(=O)c1cnc(Nc2ccccc2C)c(NC(=O)c2cc(F)cc(C(F)(F)F)c2)c1 [I-1],500 to 1000,5000 to 10000,
CNC(=O)c1cnc(Nc2ccccc2C)c(NC(=O)c2cc(Cl)cc(Cl)c2)c1 [I-6],500 to 1000,5000 to 10000,
Cc1ccccc1Nc1ncc(-c2cncnc2)cc1NC(=O)c1cc(F)cc(C(F)(F)F)c1 [I-7],100 to 500,5000 to 10000,
CNC(=O)c1cnc(Nc2ccccc2C)c(NS(=O)(=O)c2ccc(F)cc2C)c1 [I-8],100 to 500,1000 to 5000,
Cc1ccccc1Nc1ncccc1NC(=O)c1cc(F)cc(C(F)(F)F)c1 [I-11],1000 to 10000,10000 to 36000,
Cc1ccccc1Nc1ncc(C2CC2)cc1NC(=O)c1cc(F)cc(C(F)(F)F)c1 [I-21],1000 to 10000,10000 to 36000,
CNC(=O)c1cnc(Nc2ccccc2C)c(NC(=O)C(O)c2cccc(F)c2)c1 (stereo not shown) [I-27],500 to 1000,1000 to 5000,
Cc1ccccc1Nc1ncc(C(N)=O)cc1NC(=O)c1cc(F)cc(C(F)(F)F)c1 [I-28],500 to 1000,5000 to 10000,

Structure (SMILES),IC50 [1] [nM],IC50 [2] [nM],IC50 ([1]; ADP-Glo biochemical PIK3CA kinase assay) [nM]
CNC(=O)c1cnc(Nc2ccccc2C)c(NC(=O)Cc2ccc(O)c(O)c2)c1 [I-30],500 to 1000,5000 to 10000,
CNC(=O)c1cnc(Nc2ccc(C)cc2)c(NC(=O)c2cc(F)cc(C(F)(F)F)c2)c1 [I-36],500 to 1000,10000 to 36000,
CNC(=O)c1cnc(Nc2ccccc2C)c(NC(=O)c2csc3ccccc23)c1 [I-41],100 to 500,10000 to 36000,
Cc1ccccc1Nc1ncc(C(C)(C)O)cc1NC(=O)c1cc(F)cc(C(F)(F)F)c1 [I-42],1000 to 10000,10000 to 36000,
Cc1ccccc1Nc1ncc(-c2cccc(S(N)(=O)=O)c2)cc1NC(=O)c1cc(F)cc(C(F)(F)F)c1 [I-45],100 to 500,1000 to 5000,
Cc1ccccc1Nc1ncc(-c2ccc(C#N)cc2)cc1NC(=O)c1cc(F)cc(C(F)(F)F)c1 [I-46],100 to 500,1000 to 5000,
Cc1ccccc1Nc1ncc(C(=O)NC2CS(=O)(=O)C2)cc1NC(=O)c1cc(F)cc(C(F)(F)F)c1 [I-51],≤ 100,< 1000,
Cc1ccccc1Nc1ncc(C(=O)NCc2ccnn2C)cc1NC(=O)c1cc(F)cc(C(F)(F)F)c1 [I-52],100 to 500,1000 to 5000,
Cc1ccccc1Nc1ncc(C(=O)NCc2cnn(C)c2)cc1NC(=O)c1cc(F)cc(C(F)(F)F)c1 [I-53],100 to 500,5000 to 10000,
Cc1ccccc1Nc1ncc(NC(=O)OC(C)(C)C)cc1NC(=O)c1cc(F)cc(C(F)(F)F)c1 [I-54],1000 to 10000,10000 to 36000,
COc1ncc(-c2cnc(Nc3ccccc3C)c(NC(=O)c3cc(F)cc(C(F)(F)F)c3)c2)cn1 [I-57],500 to 1000,1000 to 5000,
Cc1ccccc1Nc1ncc(Br)cc1NC(=O)c1cc(F)cc(C(F)(F)F)c1 [I-60],1000 to 10000,1000 to 5000,
Cc1ccccc1Nc1ncc(C(=O)NCc2nccs2)cc1NC(=O)c1cc(F)cc(C(F)(F)F)c1 [I-65],100 to 500,1000 to 5000,
Cc1ccccc1Nc1ncc(-c2cncc(C#N)c2)cc1NC(=O)c1cc(F)cc(C(F)(F)F)c1 [I-75],100 to 500,1000 to 5000,
Cc1ccccc1Nc1ncc(-c2ccc(C(N)=O)cc2)cc1NC(=O)c1cc(F)cc(C(F)(F)F)c1 [I-79],100 to 500,5000 to 10000,
Cc1ccccc1Nc1ncc(-c2ccc(O)cc2)cc1NC(=O)c1cc(F)cc(C(F)(F)F)c1 [I-82],500 to 1000,10000 to 36000,

# — patent US20250090540A1, “PI3K-ALPHA INHIBITORS AND METHODS OF USE THEREOF” (Relay Therapeutics, Inc., priority 2021, published 2025)
